Results as given in patent US12662469B2 (SIRONAX LTD, priority 2018, dated 2026).

Test system: Cell Necrosis
Assay: Cell necrosis assay / cell viability assay (necrosis inhibitor activity)
Assay type: cell-based
Settings: necrosis inhibitor activity; EC data for 14-191 extrapolated; read-out: EC50

Row | SMILES | EC50
1 | C[C@H]1CN(c2ncc(C#N)cn2)CCN1C(=O)N1N=CCC1c1ccccc1 (stereo partly drawn) [Compound 116B, 2-((3S)-3-methyl-4-(5-phenyl-4,5-dihydro-1H-pyrazole-1-carbonyl)piperazin-1-yl)pyrimidine-5-carbonitrile] | 1000 to 10000 nM
2 | C[C@H]1CN(c2ncccn2)CCN1C(=O)N1N=CCC1c1ccccc1 (stereo in doubt) [Compound 112B, (S)-(2-methyl-4-(pyrimidin-2-yl)piperazin-1-yl)(5-phenyl-4,5-dihydro-1H-pyrazol-1-yl)methanone] | 1000 to 10000 nM
3 | C[C@H]1CN(c2ncc(Cl)cn2)CCN1C(=O)N1N=CCC1c1ccccc1 (stereo partly drawn) [Compound 113B, ((S)-4-(5-chloropyrimidin-2-yl)-2-methylpiperazin-1-yl)(5-phenyl-4,5-dihydro-1H-pyrazol-1-yl)methanone] | 1000 to 10000 nM
4 | N#Cc1csc(OC2CN(C(=O)N3N=CCC3c3cc(F)cc(F)c3)C2)n1 (centres unmarked) [Compound 131, 2-((1-(5-(3,5-difluorophenyl)-4,5-dihydro-1H-pyrazole-1-carbonyl)azetidin-3-yl)oxy)thiazole-4-carbonitrile] | 1 to 1000 nM
5 | O=C(N1CC(Cc2ccc(F)cc2)C1)N1N=CCC1c1ccccc1 (centres unmarked) [Compound 42, (3-(4-fluorobenzyl)azetidin-1-yl)(5-phenyl-4,5-dihydro-1H-pyrazol-1-yl)methanone] | 1 to 1000 nM
6 | O=C(N1CC(Oc2ccccc2F)C1)N1N=CCC1c1ccccc1 (centres unmarked) [Compound 60, (3-(2-fluorophenoxy)azetidin-1-yl)(5-phenyl-4,5-dihydro-1H-pyrazol-1-yl)methanone] | 1 to 1000 nM
7 | Cc1cnc(OC2CN(C(=O)N3N=CCC3c3cc(F)cc(F)c3)C2)s1 (centres unmarked) [Compound 176] | 1 to 1000 nM
8 | O=C(N1CC(=Cc2c(F)cccc2F)C1)N1N=CCC1c1cc(F)cc(F)c1 (centres unmarked) [Compound 133, (3-(2,6-difluorobenzylidene)azetidin-1-yl)(5-(3,5-difluorophenyl)-4,5-dihydro-1H-pyrazol-1-yl)methanone] | 1 to 1000 nM
9 | O=C(N1CC(Cc2ccc(F)cc2F)C1)N1OCC[C@H]1c1ccccc1 [Compound 82, (S)-(3-(2,4-difluorobenzyl)azetidin-1-yl)(3-phenylisoxazolidin-2-yl)methanone] | 1 to 1000 nM
10 | C[C@@H]1CN(c2ncc(F)cn2)CCN1C(=O)N1N=CCC1c1ccccc1 (stereo partly drawn) [Compound 114B, ((R)-4-(5-fluoropyrimidin-2-yl)-2-methylpiperazin-1-yl)(5-phenyl-4,5-dihydro-1H-pyrazol-1-yl)methanone] | 1000 to 10000 nM
11 | C[C@H]1CN(c2ncc(F)cn2)CCN1C(=O)N1N=CC[C@@H]1c1cc(F)cc(F)c1 [Compound 118B, ((R)-5-(3,5-difluorophenyl)-4,5-dihydro-1H-pyrazol-1-yl)((S)-4-(5-fluoropyrimidin-2-yl)-2-methylpiperazin-1-yl)methanone] | 1 to 1000 nM
12 | N#Cc1cnc(N2CCN(C(=O)N3N=CCC3c3ccccc3)CC2)s1 (centres unmarked) [Compound 108, 2-(4-(5-phenyl-4,5-dihydro-H-pyrazole-1-carbonyl)piperazin-1-yl)thiazole-5-carbonitrile] | 1 to 1000 nM
13 | O=C(N1CC[C@H](Oc2ccccc2)C1)N1N=CCC1c1ccccc1 (stereo partly drawn) [Compound 27A, ((S)-3-phenoxypyrrolidin-1-yl)(S-phenyl-4,5-dihydro-1H-pyrazol-1-yl)methanone] | 1000 to 10000 nM
14 | N#Cc1ccc(OC2CN(C(=O)N3N=CCC3c3cc(F)cc(F)c3)C2)cc1F (centres unmarked) [Compound 137, 4-((1-(5-(3,5-difluorophenyl)-4,5-dihydro-1H-pyrazole-1-carbonyl)azetidin-3-yl)oxy)-2-fluorobenzonitrile] | 1 to 1000 nM
15 | O=C(N1CC(=Cc2ccc(Cl)cc2F)C1)N1N=CCC1c1cc(F)cc(F)c1 (centres unmarked) [Compound 138] | 1 to 1000 nM
16 | O=C(N1CC(Cc2cccc(O)c2)C1)N1N=CCC1c1ccccc1 (centres unmarked) [Compound 44, (3-(3-hydroxybenzyl)azetidin-1-yl)(5-phenyl-4,5-dihydro-1H-pyrazol-1-yl)methanone] | 1000 to 10000 nM
17 | C[C@@H]1CN(c2ncc(F)cn2)C[C@@H](C)N1C(=O)N1N=CCC1c1ccccc1 (stereo partly drawn) [Compound 122, ((2R,6R)-4-(5-fluoropyrimidin-2-yl)-2,6-dimethylpiperazin-1-yl)(5-phenyl-4,5-dihydro-1H-pyrazol-1-yl)methanone] | 1000 to 10000 nM
18 | CNC(=O)c1csc(OC2CN(C(=O)N3N=CCC3c3cc(F)cc(F)c3)C2)n1 (centres unmarked) [Compound 171] | 1 to 1000 nM
19 | NC(=O)c1c(F)cc(OC2CN(C(=O)N3N=CCC3c3cc(F)cc(F)c3)C2)cc1F (centres unmarked) [Compound 156] | 1 to 1000 nM
20 | O=C(N1CCN(c2ncccn2)CC1)N1N=CCC1c1ccccc1 (centres unmarked) [Compound 84, (5-phenyl-4,5-dihydro-1H-pyrazol-1-yl)(4-(pyrimidin-2-yl)piperazin-1-yl)methanone] | 1 to 1000 nM
21 | NC(=O)c1cccc(OC2CN(C(=O)N3N=CCC3c3cc(F)cc(F)c3)C2)c1 (centres unmarked) [Compound 129, 3-((1-(5-(3,5-difluorophenyl)-4,5-dihydro-1H-pyrazole-1-carbonyl)azetidin-3-yl)oxy)benzamide] | 1 to 1000 nM

Same assay, conditions: necrosis inhibitor activity; compounds outside 14-191; read-out: EC50

Row | SMILES | EC50
22 | O=C(N1Cc2ccccc2C1)N1N=CCC1c1ccccc1 (centres unmarked) [Compound 13, Isoindolin-2-yl(5-phenyl-4,5-dihydro-1H-pyrazol-1-yl)methanone] | 1 to 1000 nM
23 | N#Cc1ccc(F)c(C=C2CN(C(=O)N3N=CC[C@H]3c3cc(F)cc(F)c3)C2)c1 [Compound 319, (S)-3-((1-(5-(3,5-difluorophenyl)-4,5-dihydro-1H-pyrazole-1-carbonyl)azetidin-3-ylidene)methyl)-4-fluorobenzonitrile] | 1 to 1000 nM
24 | CNc1cccc(OC2CN(C(=O)N3N=CCC3c3cc(F)cc(F)c3)C2)c1 (centres unmarked) [Compound 231, (5-(3,5-difluorophenyl)-4,5-dihydro-1H-pyrazol-1-yl)(3-(3-(methylamino)phenoxy)azetidin-1-yl)methanone] | 1 to 1000 nM
25 | O=C(c1cc2sc(OC3CN(C(=O)N4N=CC[C@H]4c4cc(F)cc(F)c4)C3)nc2[nH]1)N1CCC1 [Compound 261, (S)-azetidin-1-yl(2-((1-(5-(3,5-difluorophenyl)-4,5-dihydro-1H-pyrazole-1-carbonyl)azetidin-3-yl)oxy)-4H-pyrrolo[2,3-d]thiazol-5-yl)methanone] | 1 to 1000 nM
26 | N#Cc1cccc(N2CCN(C(=O)N3N=CC[C@H]3c3cc(F)cc(F)c3)CC2)n1 [Compound 233, (S)-6-(4-(5-(3,5-difluorophenyl)-4,5-dihydro-1H-pyrazol-1-carbonyl)piperazin-1-yl)picolinonitrile] | 1 to 1000 nM
27 | O=C1CCc2ccc(C=C3CN(C(=O)N4N=CCC4c4cc(F)cc(F)c4)C3)cc2N1 (centres unmarked) [Compound 277, 7-((1-(5-(3,5-difluorophenyl)-4,5-dihydro-1H-pyrazole-1-carbonyl)azetidin-3-yildene)methyl)-3,4-dihydroquinolin-2(1H)-one] | 1 to 1000 nM
28 | O=C(N1CC(Oc2nc(NCCO)ccc2F)C1)N1N=CC[C@H]1c1cc(F)cc(F)c1 [Compound 252, (S)(5-(3,5-difluorophenyl)-4,5-dihydro-1H-pyrazol-1-yl)(3-((3-fluoro-6-((2-hydroxyethyl)amino)pyridin-2-yl)oxy)azetidin-1-yl)methanone] | 1 to 1000 nM
29 | N#Cc1ccc(F)c(OC2CN(C(=O)N3N=CC[C@H]3c3cc(F)cc(F)c3)C2)c1 [Compound 235, (S)-3-((1-(5-(3,5-difluorophenyl)-4,5-dihydro-1H-pyrazole-1-carbonyl)azetidin-3-yl)oxy)-4-fluorobenzonitrile] | 1 to 1000 nM
30 | N#Cc1cc(F)cc([C@@H]2CC=NN2C(=O)N2CC(Oc3ccc4c(c3)NC(=O)CO4)C2)c1 [Compound 198, (S)-3-fluoro-5-(1-(3-((3-oxo-3,4-dihydro-2H-benzo[b][1,4]oxazin-6-yl)oxy)azetidine-1-carbonyl)-4,5-dihydro-1H-pyrazol-5-yl)benzonitrile] | 1 to 1000 nM
31 | CC1Oc2cc(F)c(OC3CN(C(=O)N4N=CC[C@H]4c4cc(F)cc(C#N)c4)C3)cc2NC1=O (stereo partly drawn) [Compound 351, 3-fluoro-5-((5S)-1(3-((7-fluoro-2-methyl-3-oxo-3,4-dihydro-2H-benzo[b][1,4]oxazin-6-yl)oxy)azetidine-1-carbonyl)-4,5-dihydro-1H-pyrazol-5. yl)benzonitrile] | 1 to 1000 nM
32 | O=C1COc2cc(F)c(OC3CN(C(=O)N4N=CC[C@H]4c4cncc(F)c4)C3)cc2N1 [Compound 194, (S)-7-fluoro-6-((1-(5-(5-fluoropyridin-3-yl)-4,5-dihydro-1H-pyrazole-1-carbonyl)azetidin-3-yl)oxy)-2H-benzo[b][1,4]oxazin-3(4H)-one] | 1 to 1000 nM
33 | N#Cc1ccc(C=C2CN(C(=O)N3N=CC[C@H]3c3cncc(F)c3)C2)c(F)n1 [Compound 324, (S)-6-fluoro-5-((1-(5-(5-fluoropyridin-3-yl)-4,5-dihydro-1H-pyrazole-1-carbonyl)azetidin-3-ylidene)methyl)picolinonitrile] | 1 to 1000 nM
34 | O=C(N1CC(=Cc2cc3[nH]nc(F)c3cc2F)C1)N1N=CCC1c1ccccc1 (centres unmarked) [Compound 302, (3-((3,5-difluoro-1H-indazol-6-yl)methylene)azetidin-1-yl)(5-phenyl-4,5-dihydro-1H-pyrazol-1-yl)methanone] | 1 to 1000 nM
35 | O=C(N1CC(Nc2ncc(F)cc2F)C1)N1N=CC[C@H]1c1cc(F)cc(F)c1 [Compound 254, (S)-(5-(3,5-difluorophenyl)-4,5-dihydro-1H-pyrazol-1-yl)(3-((3,5-difluoropyridin-2-yl)amino)azetidin-1-yl)methanone] | 1 to 1000 nM
36 | N#Cc1cc(O[C@@H]2CCN(C(=O)N3N=CC[C@H]3c3cc(F)cc(F)c3)C2)ncn1 [Compound 360, 6-(((R)-1-((S)-5-(3,5-difluorophenyl)-4,5-dihydro-1H-pyrazole-1-carbonyl)pyrrolidin-3-yl)oxy)pyrimidine-4-carbonitrile] | 1 to 1000 nM
37 | O=C(N1CC(=Cc2ccc(Cl)nc2Cl)C1)N1N=CC[C@H]1c1cc(F)cc(F)c1 [Compound 316, (S)-(3-((2,6-dichloropyridin-3-yl)methylene)azetidin-1-yl)(5-(3,5-difluorophenyl)-4,5-dihydro-1H-pyrazol-1-yl)methanone] | 1 to 1000 nM
38 | N#Cc1cncc(O[C@@H]2CCN(C(=O)N3N=CC[C@H]3c3cc(F)cc(F)c3)C2)n1 [Compound 335, 6-(((R)-1-((S)-5-(3,5-difluorophenyl)-4,5-dihydro-1H-pyrazole-1-carbonyl)pyrrolidin-3-yl)oxy)pyrazine-2-carbonitrile] | 1 to 1000 nM
